{
  "source": "patent EP0340709A1",
  "about": "“(3-Chloro-methyl phenyl)ethyl amines, processes for their production and their use” (BASF Aktiengesellschaft, priority 1988, dated 1989)",
  "tested_on": "breitblättrigew unerwünschte Pflanzen",
  "experiment": "Greenhouse herbicide test, pre- and post-emergence treatment",
  "assay_type": "in vivo",
  "conditions": "2,0 kg/ha a.S., Nachauflaufverfahren bzw. Vorauflaufverfahren, 2 bis 4 Wochen",
  "text": "Die herbizide Wirkfung der (3-Chlor-2-methylphenylethylamine der Formel I ließ sich durch Gewächshausversuche zeigen: Zur Aufzucht der Testpflanzen dienten Plastikblumentöpfe mit 300 cm³ Inhalt und lehmigem Sand mit etwa 3 % Humus als Substrat. Die Samen der Testpflanzen wurden nach Arten getrennt flach eingesät.\nBei Vorauflaufbehandlung wurden die aufbereiteten Wirkstoffe unmittelbar danach auf die Erdoberfläche aufgebracht. Sie wurden hierbei in Wasser als Verteilungsmittel suspendiert oder emulgiert und mittels fein verteilender Düsen gespritzt. Nach dem Aufbringen der Mittel wurden die Gefäße leicht beregnet, um Keimung und Wachstum in Gang zu bringen. Danach wurden die Gefäße mit durchsichtigen Plastikhauben abgedeckt, bis die Pflanzen angewaschsen waren. Diese Abdeckung fördert ein gleichmäßiges Keimen der Testpflanzen, sofern dies nicht durch die Wirkstoffe beeinträchtigt wird. Die Aufwandmengen betrugen 2,0 kg/ha.\nZum Zwecke der Nachauflaufbehandlung wurden die Testpflanzen je nach Wuchsform erst bis zu einer Wuchshöhe von 3 bis 15 cm angezüchtet und erst dann behandelt. Die Testpflanzen wurden dafür entweder direkt gesät und in den gleichen Gefäßen aufgezogen oder sie wurden als Keimpflanzen getrennt gezüchtet und einige Tage vor der Behandlung in die Versuchsgefäße verpflanzt. Die Aufwandmengen für die Nachauflaufbehandlung betrugen 2,0 kg Wirkstoff/ha. […]",
  "data": [
    {"smiles": "Cc1c(Cl)cccc1CCNC(=O)c1ccccc1", "note": "[Beispiel 3, N-Benzoyl-3-chlor-2-methylphenethylamin]", "values": [
      {"measurement": "herbizide Wirkung (Bekämpfung breitblättriger unerwünschter Pflanzen)", "result": "sehr gut"}
    ]}
  ]
}
